Experimental data as given in PubChem BioAssay (NCI).
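Protocol summary: plate cells (96-well), add compound at 5 concentrations, incubate 48 h, interpolate endpoints linearly. GI50 = concentration required for 50% inhibition of growth. TGI denotes the concentration required for complete inhibition of growth.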

How the values were obtained:
Experiment in all cases: NCI anticancer screen, dose series, 48 h
RXF 393 renal = system: RXF 393 renal
KM12 colon = system: KM12 colon
SK-MEL-2 melanoma = system: SK-MEL-2 melanoma
NCI-H23 lung = system: NCI-H23 lung
SW-620 colon = system: SW-620 colon
SK-MEL-28 melanoma = system: SK-MEL-28 melanoma
RPMI-8226 leukemia = system: RPMI-8226 leukemia
DU-145 prostate = system: DU-145 prostate
MCF7 breast = system: MCF7 breast
NCI/ADR-RES ovarian = system: NCI/ADR-RES ovarian

SMILES	TGI (RXF 393 renal) [µM]	TGI (KM12 colon) [µM]	TGI (SK-MEL-2 melanoma) [µM]	TGI (NCI-H23 lung) [µM]	TGI (SW-620 colon) [µM]	TGI (SK-MEL-28 melanoma) [µM]	TGI (RPMI-8226 leukemia) [µM]	TGI (DU-145 prostate) [µM]	TGI (MCF7 breast) [µM]	TGI (NCI/ADR-RES ovarian) [µM]	GI50 (RXF 393 renal) [µM]	GI50 (KM12 colon) [µM]	GI50 (SK-MEL-2 melanoma) [µM]	GI50 (NCI-H23 lung) [µM]	GI50 (MCF7 breast) [µM]	GI50 (SK-MEL-28 melanoma) [µM]	GI50 (NCI/ADR-RES ovarian) [µM]	GI50 (RPMI-8226 leukemia) [µM]	GI50 (DU-145 prostate) [µM]	GI50 (SW-620 colon) [µM]
Cc1ccc2c(CC(=O)O)cc(=O)oc2c1	> 100	> 100	> 100	> 100	> 100	> 100	> 100	–	–	–	–	–	–	–	–	–	–	–	–	–
O=c1cc(O)c2c(O)cc(O)cc2o1	> 100	–	> 100	> 100	> 100	> 100	> 100	> 100	> 100	> 100	–	–	–	–	–	–	–	–	–	–
COc1ccc(C#CC2=C(c3cc(OC)c(OC)c(OC)c3)C(=O)OC2)cc1	26.7	27.4	> 50	17.3	–	> 50	3.56	–	> 50	27.9	6.77	1.63	42.5	5.77	0.948	9.28	5.82	1.21	–	–
Cc1cc2c(cc1C)[n+](Cc1ccc3ccccc3n1)cn2Cc1ccc2ccccc2n1	2.45	2.06	3.12	3.53	2.92	2.47	1.62	6.56	–	50.9	1.17	0.568	1.57	0.736	–	0.992	16.7	0.301	1.6	1.07
C/C=C1\CCC2c3[nH]c4ccccc4c3CCN2C1 (configuration not stated)	> 100	> 100	> 100	> 100	> 100	> 100	–	–	–	–	–	–	–	–	–	–	–	–	–	–
COC[C@@H](N=CN1CCc2cc(OC)c(OC)cc2C1)C(C)(C)C	> 100	> 100	–	> 100	> 100	> 100	> 100	–	–	–	–	–	–	–	–	–	–	–	–	–
COc1ccc2c(c1)CCN1C3=C(CCC3)C(=O)C[C@@H]21	> 100	> 100	> 100	> 100	> 100	> 100	> 100	–	–	–	–	–	–	–	–	–	–	–	–	–
CCCC#CCOC(=O)c1cc([N+](=O)[O-])cc([N+](=O)[O-])c1	–	> 100	> 100	> 100	> 100	> 100	> 100	> 100	> 100	> 100	–	–	–	–	–	–	–	–	–	–
COc1cc2c(cc1OC)[C@@H]([C@H](O)c1ccccc1)NCC2	> 100	> 100	> 100	> 100	> 100	> 100	> 100	–	–	–	–	–	–	–	–	–	–	–	–	–
Cc1cn2c(/C=N/N=C(N)N)c(-c3ccsc3)nc2s1	33.5	29.9	> 100	30.5	23.3	–	16	–	14.8	51.5	17.3	6.6	28.3	15.8	3.43	–	22.5	3.69	–	5.67
O=C1CCC2(c3ccccc3)Nc3ccc(Cl)cc3N12 (configuration not stated)	> 100	> 100	> 100	> 100	> 100	> 100	> 100	–	–	–	–	–	–	–	–	–	–	–	–	–
CC/C(CC(=O)CCC(=O)Nc1ccc(C)c(C)c1)=N\NC(=O)C(N)=O	–	–	–	> 100	> 100	> 100	> 100	–	–	–	–	–	–	–	–	–	–	–	–	–
